# Reference: US20100324285A1, “ANTIINFLAMMATORY AGENT COMPRISING 2-AMINOPHENOL OR DERIVATIVE THEREOF AS ACTIVE INGREDIENT” (priority 2006, published 2010)
# What was measured:
# [1] = system: RAW264.7 cells; assay: NO production by macrophage RAW264.7, Griess method; assay type: cell-based, mouse; conditions: LPS + IFN-γ, 2 days, relative level versus control
# Excerpt: As macrophage cells, RAW264.7 cell strain from mouse or macrophage cells obtained from laboratory animals such as mouse can be used. The amount of produced NO can be measured by conventional Griess method. […] RAW264.7 cells, a murine macrophage cell strain, were suspended in PRMI1640 medium supplied with 10% (v/v) fetal calf serum (hereinafter abbreviated as “FCS”) to give a cell suspension with a cell concentration of 1×10^6 cells/ml. […] The experimental system without the test samples described above was set as control. […] NO production, PGE2 production and macrophage growth are indicated as relative levels versus controls.
# [2] = system: RBL-2H3; assay: Degranulation reaction of basocyte (β-hexosaminidase release); assay type: cell-based, rat
# Protocol: Degranulation rate (%) and inhibition rate of degranulation (%) were calculated based on the measurements of β-hexosaminidase activity in the granules released from the cells by degranulation reaction.
# Rat cancer cells from basocyte RBL-2H3(catalognumber“JCRB0023”, commercialized by Health Science Research Resources Bank of Japan Health Sciences Foundation), known to be degranulated by cross-linkage of IgE, were used after cultured in a MEM medium (commercialized by Nissui Pharmaceutical Co., Ltd.) supplemented with 10% (v/v) FCS.
# The above cells were recovered from a flask by conventional trypsin-EDTA treatment, then suspended in a MEM medium supplemented with 10% (v/v) FCS to give a cell concentration of 5×10^5 cells/ml. The suspension was inoculated to a 24-well microplate in a volume of 400 μl per well, cultured in a 5% (v/v) carbon dioxide incubator for 3 to 5 hours, then admixed with 0.625 μg/ml of anti dinitrophenol (hereinafter abbreviated as “DNP”) mouse IgE (commercialized by Sigma-Aldrich, Inc., diluted by MEM medium supplied with 10% (v/v) FCS) in a volume of 100 μl per well to sensitize the cells by IgE (a final concentration of the anti DNP-IgE was 0.125 μg/ml). After the cells were cultured in the 5% (v/v) carbon dioxide incubator overnight, the supernatant was removed by suction, and then each well was washed twice with Siraganian buffer (119 mM NaCl, 5 mM KCl, 0.4 mM MgCl2, 25 mM piperazine-N,N″-bis(2-ethane sulfonic acid) (PIPES), 40 mM NaOH, pH 7.2) by 500 μl per well. After admixed with Siraganian buffer containing 0.1% bovine serum albumin (BSA), 5.6 mM glucose and 1 mM CaCl2 (hereinafter described as “BSA-containing Siraganian buffer) in a volume of 160 μl per well, the microplate was warmed at 37° C. for 15 minutes. As test samples, 2-aminophenoxazine-3-one (questiomycin A), arbutin having skin-whitening effect and oxatomide used as therapeutic agents for allergic diseases (positive control) were diluted with BSA-containing Siraganian buffer to give the concentrations shown in Table 3, any of the test samples was added by 20 μl per well, then the microplate was warmed at 37° C. for 15 minutes (wells with the test samples). The well with any of the test samples was admixed with DNP-albumin (commercialized by Sigma-Aldrich, Inc.) diluted with BSA-containing Siraganian buffer to give a concentration of 50 μg/ml by 20 μl per well, and warmed at 37° C. for 15 minutes. After the 24-well microplate was cooled on ice for 10 minutes, the supernatant was collected and 100 μl thereof was injected into a 96-well microplate to measure the β-hexosaminidase activity in the supernatant. As negative control, BL-2H3 cells were cultured and treated in the same way as the wells admixed with the test samples except for that FCS-supplemented MEM medium containing no antibody was used, and the β-hexosaminidase activity in the supernatant was measured (the well without IgE sensitization). After the supernatants were removed from some of the wells without IgE sensitization, the wells were washed twice with BSA-containing Siraganian buffer and admixed with BSA-containing Siraganian buffer by 200 μl per well. The cells were broken by twice repeating freezing at −80° C. and thawing, whole medium containing the broken cells was collected, centrifuged at 1,500 rpm for 10 minutes, and then 100 μl of the supernatant was injected into a 96-well microplate to measure the β-hexosaminidase activity of the whole granule extract.
# Each well of the 96-well microplate injected with any of the supernatant from the wells with the test samples, the supernatant from the wells without IgE sensitization or the whole granule extract described above was admixed with 50 μl of citrate buffer (pH 4.5) containing 1 mM 4-nitrophenyl-N-acetyl-β-glucosaminide (PNAG) as substrate, kept at 37° C. for 1 hour, and then the reaction was stopped by adding 50 μl of 0.1 M sodium carbonate (pH 10.5). […]
# [3] = system: NHDF, normal fibroblast from human fetus; assay: Cytopathic test, alamar Blue; assay type: cell-based; conditions: 6 days; for Cell survival rate (%), AA-2G free: no AA-2G; for Cell survival rate (%), AA-2G addition: with AA-2G
# Protocol: Cells were cultured with test samples and D-MEM medium supplemented with 10 (v/v) % FCS with or without AA-2G for 6 days by the same method as above, and the supernatant was removed, washed with phosphate buffered saline (PBS(−)), and admixed with alamar Blue (commercialized by TREK Diagnostic Systems, Inc.), which had been diluted by 10-fold with D-MEM medium in a volume of 200 μl per well. After culturing at 37° C. for 90 minutes, the fluorescence intensity (exciting light: 544 nm, fluorescence: 590 nm) was measured. The cell survival rate (%) was calculated by dividing the fluorescence intensity of a well with a test sample by the fluorescence intensity of a well with a control sample, and multiplying by 100.
# [4] = system: Mouse melanoma cell line B16; assay: Melanin synthesis in B16 cells; assay type: cell-based; conditions: 5 days, per mg protein versus control
# Protocol: As control, a system with no test sample was provided. […] The amount of protein was measured by conventional Bradfordmethod and the amount of melanin per 1 mg of protein was calculated. The amount of melanin (%) was calculated according to Formula 4, and the living cell rate (%) was calculated according to Formula 5.
# As control, a system with no test sample was provided. […] The amount of protein was measured by conventional Bradford method and the amount of melanin per 1 mg of protein was calculated. The amount of melanin (%) was calculated according to Formula 4.
smiles,measurement,setting,value
"Nc1cc2nc3ccccc3oc-2cc1=O [2-Aminophenoxazine-3-one, 2-aminophenoxazine-3-one]",NO production (%),[1]; 0.16 μM,85%
same,NO production (%),[1]; 0.31 μM,78%
same,NO production (%),[1]; 0.63 μM,70%
same,NO production (%),[1]; 1.3 μM,54%
same,NO production (%),[1]; 2.5 μM,32%
same,NO production (%),[1]; 5.0 μM,19%
same,NO production (%),[1]; 10 μM,14%
same,inhibition at 0.63 µM,"[2]; Rattus norvegicus, RBL-2H3, 0.63 μM, read-out: Inhibition intensity of degranulation",-30 to 30%
same,inhibition at 5 µM,"[2]; Rattus norvegicus, RBL-2H3, 5 μM, read-out: Inhibition intensity of degranulation",30 to 50%
same,inhibition at 10 µM,"[2]; Rattus norvegicus, RBL-2H3, 10 μM, read-out: Inhibition intensity of degranulation",≥ 50%
same,inhibition at 23 µM,"[2]; Rattus norvegicus, RBL-2H3, 23 μM, read-out: Inhibition intensity of degranulation",≥ 50%
same,inhibition at 31.3 µM,"[2]; Rattus norvegicus, RBL-2H3, 31.3 μM, read-out: Inhibition intensity of degranulation",≥ 50%
same,inhibition at 40 µM,"[2]; Rattus norvegicus, RBL-2H3, 40 μM, read-out: Inhibition intensity of degranulation",≥ 50%
same,concentration at which inhibiting activity on degranulation was exerted,[2]; summary of Table 3,≥ 5 µM
same,"Cell survival rate (%), AA-2G free",[3]; QA 0.125 μM,101%
same,"Cell survival rate (%), AA-2G addition",[3]; QA 0.125 μM,100%
same,"Cell survival rate (%), AA-2G free",[3]; QA 0.25 μM,103%
same,"Cell survival rate (%), AA-2G addition",[3]; QA 0.25 μM,100%
same,"Cell survival rate (%), AA-2G free",[3]; QA 0.5 μM,99%
same,"Cell survival rate (%), AA-2G addition",[3]; QA 0.5 μM,92%
same,"Cell survival rate (%), AA-2G free",[3]; QA 1.0 μM,92%
same,"Cell survival rate (%), AA-2G addition",[3]; QA 1.0 μM,79%
same,"Cell survival rate (%), AA-2G free",[3]; QA 2.0 μM,88%
same,"Cell survival rate (%), AA-2G addition",[3]; QA 2.0 μM,73%
same,Amount of melanin (%),[4]; 0.5 μM,74%
same,Amount of melanin (%),[4]; 1 μM,69%
same,Amount of melanin (%),[4]; 2 μM,61%
